# US20050048132A1, “Use of hydrochloric acid in the preparation of a medicament for the treatment of tumour” (priority 2001, published 2005)
# Read-outs that look alike come from different tables or passages of the source.
# Key:
# pig livers in vitro = conditions: 0.5 ml each; after 24 hours
# Source text: Twelve pig livers purchased from the market were divided into 4 groups, 3 in each group. A puncture needle was punctured to the center of the liver tissue and then connected with an automatic microinjecting pump.
# S-180 sarcomas = conditions: forty-eight hours after injection; for Diameters of coagulating necrotic area / Gross shapes: 0.05 ml each into tumor 1 cm in size
# Source text: S-180 sarcomas were implanted into the hypodermal tissues of mice of Kun Ming species. When the tumor grew into 1 cm in size, a puncture needle was punctured into the center of the tumor and then connected with an automatic micro-injecting pump.
# liver of hogs in vivo = conditions: 1.0 ml each into hog liver; 1 week after injection
# Source text: Experiment in vivo: Nine hogs (females and males) with average body weight of 70 kg were fed in an enclosed area. The hogs were divided into 3 groups, 3 hogs in each group. The hair on the location of liver was shaved and the skin was sterilized. […] The animals were dissected 1 week after the injection.
# [1] = test system: metastatic tumor of the left lobe of the brain from pulmonary adenocarcinoma; conditions: 1.0 ml of 18 wt % HCl, two times; tumor 1.9 cm×1.9 cm before; 3 months after treatment
# cancer cells = experiment: Cultivation of cancer cells in vitro together with gastric juice; format: cell-based
# skin of guinea pig = conditions: 0.2 ml of 3.6 wt % HCl hypodermal
# Method: Six guinea pigs, female and males, 500 g each in body weight, were fed in the routine way. The guinea pig was anesthetized by ether. 0.2 ml of 3.6 wt % HCl was injected into the hypodermal tissue of the guinea pig.
# lungs of hogs = test system: lungs of hogs
# Source text: The lung of the animal was dissected 1 week after the injection.
# [2] = test system: recurrent carcinoma of breast; conditions: 1.0 ml of 18 wt % HCl, treated three times; tumor 2.0 cm×1.5 cm
# pig liver in vitro = test system: pig liver in vitro
# Method: Thirty pig livers purchased from the market were divided into 10 groups, 3 in each group. […] One milliliter (1 ml) of hydrochloric acid solutions, (the concentrations being 1.8 wt %, 3.6 wt %, 7.2 wt %, 10.8 wt %, 14.4 wt %, 18 wt %, 25.2 wt %), and 1 ml , 0.5 ml, 0.1 ml respectively, of analytical pure hydrochloric acid were injected slowly to the […] of different groups, at a speed of 0.3 ml/min. The gross specimens were observed and the average value of the diameters of coagulated areas was determined.
# [3] = test system: primary bronchopulmonary carcinoma
# Method: Two cases of primary bronchopulmonary carcinoma which were pathologically confirmed were chosen. One was a case of adenocarcinoma, the other was a case of adenous prickle cell carcinoma. The sizes of the two tumors were 2.0×2.0 cm and 2.5×2.0 cm respectively. After CT location, guided by CT, percutaneous puncture was carried out on each case; the needle reached the center of the tumor and connected with an automatic micro-injecting pump, 1.5, 2.0 ml of 18 wt % HCl were injected into the tumors at a speed of 0.2 ml/min.
# kidney cancer = conditions: 1.5 ml of 18 wt % HCl, 3 months after treatment
# Method: Treatment of kidney cancer: guided by CT, the puncture needle hit the center of the tumor, 1.5 ml of 18 wt % HCl was injected into the tumor slowly.
# [4] = test system: abdominal hypodermal tissue of mice
# Method: Thirty mice were used in the experiment. 0.05 ml of 3.8 wt % HCl was injected into the abdominal hypodermal tissue of each of them. […] Injection of 0.05 ml of normal saline was given to each of the remaining 6 mice which served as the control group. Normal saline was injected into the corresponding site where HCl had been injected to the other experimental mice.
# pig liver in vivo = conditions: for diameters of coagulated areas / pathological changes: 1 ml of 3.6% hydrochloric acid
# Source text: Ten hogs (females and males), with body weights of 70 kg on average, were fed in an enclosed area. The hair on the location of the liver of each hog was shaved and the skin sterilized guided by B-type ultrasonography. The puncture needle was punctured through the skin to the liver and then the needle was connected with an automatic micro-injecting pump. […] The animal was dissected at 1 week, 4 weeks, 12 weeks and 24 weeks after injection, and the shapes of the coagulating necrotic areas were observed and the diameters of the areas were measured. […] Then the liver tissue including normal tissue and coagulating necrotic tissue was fixed with formalin. Paraffin sections were prepared and the histopathological changes were observed under a microscope. […] Under a microscope, the structure of coagulating necrotic liver tissue was divided into two layers: the necrotic area in the center, and the surrounding reacting area.
# [5] = test system: metastatic tumor of the adrenal gland from pulmonary carcinoma; conditions: 1.0 ml of 18 wt % HCl, treated three times
# [6] = test system: cancerous pain due to advanced cancers; conditions: 3.6 wt % HCl to block and damage the nerves
# [7] = 1.5 ml-2.0 ml of 18 wt % HCl with i.v. 5 wt % sodium bicarbonate, 4 patients
# [8] = 1.5 ml-2.0 ml of 18 wt % HCl, one week after injection
# Method for W256 sarcoma: Rats, female and males, 500 g each in body weight, were fed routinely. Hypodermic implantation of W256 sarcoma was carried out. Sarcoma, 5 cm in diameter, was chosen. One (1.0) ml of 18 wt % HCl was slowly injected into the tumor. Twenty-four hours after injection, the rats were dissected, and the tumors were observed.
structure (smiles),measurement,setting,value
"CC(=O)O [50% acetic acid, acetic acid]",diameter of coagulating necrotic area,pig livers in vitro,2.0 cm
same,gross shape,pig livers in vitro,"lump-like, white, the border"
same,Diameters of coagulating necrotic area,S-180 sarcomas,0.62 cm
same,Gross shapes,S-180 sarcomas,"brown, the border was unclear,"
same,diameter of coagulating necrotic area,liver of hogs in vivo,about 1.8 cm
same,gross examination of coagulating necrotic area,liver of hogs in vivo,did not have a definite border
Cl [hydrochloric acid],size of metastatic tumor by intensified CT,[1],0.8 cm
same,effect on cancer cells in culture,cancer cells,the destruction was due to gastric acid
same,skin change after injection,skin of guinea pig,the skin became rough and a little exudation occurred
same,skin change three weeks later,"skin of guinea pig; iodine tincture smeared, three weeks later",the surface became dry and scar was formed
same,diameter of surface of ulcer,skin of guinea pig; one week after injection,1.0 cm
same,reaction of animal at injection,lungs of hogs; 1.0 ml of 3.6 wt % HCl into the lung at 0.3 ml/min,coughed slightly
same,diameter of coagulated (consolidated) lung tissue,"lungs of hogs; 1.0 ml of 3.6 wt % HCl, 1 week after injection",1.8 cm
same,coagulating necrotic area on dissection of the lung,"lungs of hogs; 1.0 ml of 3.6 wt % HCl, four weeks after injection",the coagulating necrotic area became smaller
same,fate of necrotic substances,"lungs of hogs; 1.0 ml of 3.6 wt % HCl, three months after injection",the necrotic substances were absorbed
same,diameter of brown necrotic tumor tissue,"W256 sarcoma; 1.0 ml of 18 wt % HCl into sarcoma 5 cm in diameter, 24 hours after injection",3.5 cm
same,death or intoxication during the treatment,W256 sarcoma; 1.0 ml of 18 wt % HCl intratumoral,no death or intoxication occurred among the rats
same,histopathologic changes by microscopy,"W256 sarcoma; 1.0 ml of 18 wt % HCl, 24 hours after injection",complete necrosis occurred in the necrotic area
same,tumor response,[2],basically turned into necrotic tissue
same,"pH value of blood, blood routine tests, liver and kidney function tests",primary liver cancer; [7],all normal
same,painful or toxic manifestation,primary liver cancer; [7],None of the 4 patients had painful or toxic manifestation
same,color ultrasonography of the tumor,primary liver cancer; [8],high level echo without blood flow area
same,liver cancer sensitive index α-fetoglobulin value,primary liver cancer; [8],markedly lowered
same,Diameter of coagulated areas,"pig liver in vitro; 0.1 ml of analytic pure hydrochloric acid (36%), 24 hours after injection",1.5 cm
same,Diameter of coagulated areas,"pig liver in vitro; 0.1 ml of analytic pure hydrochloric acid (36%), immediately after injection",0.2 cm
same,Diameter of coagulated areas,"pig liver in vitro; 0.5 ml of analytic pure hydrochloric acid (36%), 24 hours after injection",3.9 cm
same,Diameter of coagulated areas,"pig liver in vitro; 0.5 ml of analytic pure hydrochloric acid (36%), immediately after injection",1.5 cm
same,Diameter of coagulated area,"pig liver in vitro; 1 ml of 1.8 % hydrochloric acid, 24 hours after injection",0.75 cm
same,Diameter of coagulated area,"pig liver in vitro; 1 ml of 1.8 % hydrochloric acid, immediately after injection",0.7 cm
same,Diameter of coagulated area,"pig liver in vitro; 1 ml of 3.6 % hydrochloric acid, 24 hours after injection",1.4 cm
same,Diameter of coagulated area,"pig liver in vitro; 1 ml of 3.6 % hydrochloric acid, immediately after injection",1.0 cm
same,Diameter of coagulated area,"pig liver in vitro; 1 ml of 7.2 % hydrochloric acid, 24 hours after injection",1.9 cm
same,Diameter of coagulated area,"pig liver in vitro; 1 ml of 7.2 % hydrochloric acid, immediately after injection",1.3 cm
same,Diameter of coagulated area,"pig liver in vitro; 1 ml of 10.8 % hydrochloric acid, 24 hours after injection",2.2 cm
same,Diameter of coagulated area,"pig liver in vitro; 1 ml of 10.8 % hydrochloric acid, immediately after injection",1.5 cm
same,Diameter of coagulated area,"pig liver in vitro; 1 ml of 14.4 % hydrochloric acid, 24 hours after injection",3.1 cm
same,Diameter of coagulated area,"pig liver in vitro; 1 ml of 14.4 % hydrochloric acid, immediately after injection",1.8 cm
same,Diameter of coagulated area,"pig liver in vitro; 1 ml of 18 % hydrochloric acid, 24 hours after injection",4.8 cm
same,Diameter of coagulated area,"pig liver in vitro; 1 ml of 18 % hydrochloric acid, immediately after injection",2.2 cm
same,Diameter of coagulated area,"pig liver in vitro; 1 ml of 25.2 % hydrochloric acid, 24 hours after injection",5.2 cm
same,Diameter of coagulated area,"pig liver in vitro; 1 ml of 25.2 % hydrochloric acid, immediately after injection",2.4 cm
same,Diameter of coagulated areas,"pig liver in vitro; 1.0 ml of analytic pure hydrochloric acid (36%), 24 hours after injection",5.5 cm
same,Diameter of coagulated areas,"pig liver in vitro; 1.0 ml of analytic pure hydrochloric acid (36%), immediately after injection",2.8 cm
same,cytological examination of needle puncture biopsy,"[3]; 1.5, 2.0 ml of 18 wt % HCl",found necrotic tissue
same,reactions during the treatment,"[3]; 1.5, 2.0 ml of 18 wt % HCl with i.v. 5% sodium bicarbonate, two patients",coughed slightly during the treatment; no other painful or toxic manifestations occurred
same,"pH value of blood, blood routine tests, liver and kidney function tests","[3]; 1.5, 2.0 ml of 18 wt % HCl, two patients",all normal
same,appearance of tumor on re-examination,kidney cancer,high level echo locus without blood flow
same,diameter of tumor on re-examination,kidney cancer; tumor 3.0 cm×2.5 cm before,0.5 cm
same,coagulating necrotic ranges of the liver,"hogs; 18 wt % HCl, 0.5, 1, 3 ml at 0.1, 0.5, 1 ml/min into hog liver, one week after injection",1.2-5.2 cm
same,death or intoxication,"hogs; 18 wt % HCl, 0.5 ml-3 ml into hog liver",No death or intoxication of hog occurred
same,damage in the abdominal organs by dissection,[4]; 0.05 ml of 3.8 wt % HCl abdominal hypodermal,No damage was found in the abdominal organs
same,diameters of damages (ulcer-like damages of the skin),[4]; 0.05 ml of 3.8 wt % HCl then 0.05 ml normal saline (control group),1.2 cm
same,diameters of scar areas,"[4]; 0.05 ml of 3.8 wt % HCl then normal saline (control group), one week later",0.9 cm
same,diameters of coagulated areas,pig liver in vivo; 1 week after injection,1.8 cm
same,pathological changes,pig liver in vivo; 1 week after injection,"necrotic area occupies most part of the area,"
same,diameters of coagulated areas,pig liver in vivo; 4 weeks after injection,1.3 cm
same,pathological changes,pig liver in vivo; 4 weeks after injection,"The necrotic area became smaller, infiltration"
same,diameters of coagulated areas,pig liver in vivo; 12 weeks after injection,0.5 cm
same,pathological changes,pig liver in vivo; 12 weeks after injection,"The necrotic area became further smaller, the"
same,animal death during the experiment,pig liver in vivo; 1 ml of 3.6 wt % hydrochloric acid into hog liver,no animal died due to the treatment
same,diameter of round high level echo region at coagulated site by B-type ultrasonography,"pig liver in vivo; 1 ml of 3.6 wt % hydrochloric acid, immediately after injection",2.0 cm
same,fate of necrotic substances,"pig liver in vivo; 1 ml of 3.6 wt % hydrochloric acid, sixteen weeks after injection",the necrotic substances were absorbed
same,tumor response,[5],necrosis of the tumor occurred
same,relief of cancerous pain,[6],pain could be relieved
same,diameter of coagulating necrotic area,pig livers in vitro,2.2 cm
same,gross shape,pig livers in vitro,"spherical, grayish white in color, the"
same,Diameters of coagulating necrotic area,S-180 sarcomas,0.76 cm
same,Gross shapes,S-180 sarcomas,"spherical, caseous, grayish white in color,"
same,necrosis of the tumor,S-180 sarcomas; 0.05 ml,complete necrosis of the tumor
same,diameter of coagulating necrotic area,liver of hogs in vivo,2.1 cm
same,gross examination of coagulating necrotic area,liver of hogs in vivo,spheroid
"CCO [100% absolute alcohol, absolute alcohol]",diameter of coagulating necrotic area,pig livers in vitro,0.5 cm
same,gross shape,pig livers in vitro,"spherical, white, the border"
same,Diameters of coagulating necrotic area,S-180 sarcomas,0.41 cm
same,Gross shapes,S-180 sarcomas,"spherical, white in color, the border"
same,diameter of coagulating necrotic area,liver of hogs in vivo,0.5 cm
same,gross examination of coagulating necrotic area,liver of hogs in vivo,"spherical, white in color"
